pIC50: −log10 of the molar value.
Legend:
Assay type in all cases: biochemical
BTK = biological target: T1, BTK (Homo sapiens, UniProt Q06187); assay: BTK enzymatic assay (Caliper LifeSciences technology)
T1 construct: purchased Carna Bioscience, Kobe, Japan
Method: (§1) The assays described here are performed on the Caliper Life Sciences LC3000 system This technology provides data on enzyme activity via measurement of the relative amounts of phosphorylated or unphosphorylated fluorescently labelled substrate peptide at the end of an enzymatic reaction. These different states of peptide are resolved by applying a potential difference across the sample. The presence of the charged phosphate group on the product (as opposed to the substrate) causes a different peptide mobility between the two peptides. This is visualized by excitation of the fluorescent label on the substrate and product peptides and represented as peaks within the analysis software.
(§2) In order to measure inhibitor activity of kinase inhibitors on this technology, a TTP Mosquito liquid handling instrument is used to place 0.25 ul of the appropriate concentration of inhibitor in 100% DMSO (for a dose response curve calculation) into each well of a 384-well plate. To this reaction components are added to a final volume of 25 ul. The table below indicates the sequences and concentrations for the assays described in this report. Standard components are 1 mM DTT (Sigma, D0632), 1 mM MgCl2 (Sigma, M1028), 100 mM HEPES pH 7.5 (Calbiochem, 391338), 0.015% Brij-35 (Sigma, B4184).
(§3) The reaction is incubated for 90 min at 25 C, and then stopped by the addition of 70 ul of Stop buffer (100 mM HEPES pH 7.5, 0.015% Brij-35, 10 mM EDTA (Sigma, E7889)).
(§4) The plate is read on a Caliper LC 3000 in an Off-Chip mobility shift assay format, on a 12-sipper chip. Unphosphorylated substrate and phosphorylated product peptide resolve as separate peaks allowing direct measurement of percentage of conversion of substrate to product. The percent conversion can be plotted against concentration of inhibitor to produce a sigmoidal dose response curve, from which an IC50 can be calculated using GeneData Condoseo or a similar product.

Syk = biological target: T2, Syk (Homo sapiens, UniProt P43405); assay: Syk enzyme assay (SYK flash plate assay / Caliper mobility shift)
T2 construct: purchased BPS Bioscience, CA, USA
Method in brief: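 Flashplate format: 2.5 nM SYK, 400 nM biotinylated peptide, 10 μM ATP with 33P-ATP, pH 7.5, 1 h at 30 °C; radioactivity read, staurosporine background. Caliper format: 90 min at 25 °C, mobility-shift read of substrate-to-product conversion; IC50 from dose-response curve.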

KDR = biological target: T3, KDR (Homo sapiens, UniProt P35968); assay: KDR enzymatic assay (Caliper LifeSciences technology)
T3 construct: purchased BPS Bioscience, CA, USA
T3 sequence (P35968 20-1356): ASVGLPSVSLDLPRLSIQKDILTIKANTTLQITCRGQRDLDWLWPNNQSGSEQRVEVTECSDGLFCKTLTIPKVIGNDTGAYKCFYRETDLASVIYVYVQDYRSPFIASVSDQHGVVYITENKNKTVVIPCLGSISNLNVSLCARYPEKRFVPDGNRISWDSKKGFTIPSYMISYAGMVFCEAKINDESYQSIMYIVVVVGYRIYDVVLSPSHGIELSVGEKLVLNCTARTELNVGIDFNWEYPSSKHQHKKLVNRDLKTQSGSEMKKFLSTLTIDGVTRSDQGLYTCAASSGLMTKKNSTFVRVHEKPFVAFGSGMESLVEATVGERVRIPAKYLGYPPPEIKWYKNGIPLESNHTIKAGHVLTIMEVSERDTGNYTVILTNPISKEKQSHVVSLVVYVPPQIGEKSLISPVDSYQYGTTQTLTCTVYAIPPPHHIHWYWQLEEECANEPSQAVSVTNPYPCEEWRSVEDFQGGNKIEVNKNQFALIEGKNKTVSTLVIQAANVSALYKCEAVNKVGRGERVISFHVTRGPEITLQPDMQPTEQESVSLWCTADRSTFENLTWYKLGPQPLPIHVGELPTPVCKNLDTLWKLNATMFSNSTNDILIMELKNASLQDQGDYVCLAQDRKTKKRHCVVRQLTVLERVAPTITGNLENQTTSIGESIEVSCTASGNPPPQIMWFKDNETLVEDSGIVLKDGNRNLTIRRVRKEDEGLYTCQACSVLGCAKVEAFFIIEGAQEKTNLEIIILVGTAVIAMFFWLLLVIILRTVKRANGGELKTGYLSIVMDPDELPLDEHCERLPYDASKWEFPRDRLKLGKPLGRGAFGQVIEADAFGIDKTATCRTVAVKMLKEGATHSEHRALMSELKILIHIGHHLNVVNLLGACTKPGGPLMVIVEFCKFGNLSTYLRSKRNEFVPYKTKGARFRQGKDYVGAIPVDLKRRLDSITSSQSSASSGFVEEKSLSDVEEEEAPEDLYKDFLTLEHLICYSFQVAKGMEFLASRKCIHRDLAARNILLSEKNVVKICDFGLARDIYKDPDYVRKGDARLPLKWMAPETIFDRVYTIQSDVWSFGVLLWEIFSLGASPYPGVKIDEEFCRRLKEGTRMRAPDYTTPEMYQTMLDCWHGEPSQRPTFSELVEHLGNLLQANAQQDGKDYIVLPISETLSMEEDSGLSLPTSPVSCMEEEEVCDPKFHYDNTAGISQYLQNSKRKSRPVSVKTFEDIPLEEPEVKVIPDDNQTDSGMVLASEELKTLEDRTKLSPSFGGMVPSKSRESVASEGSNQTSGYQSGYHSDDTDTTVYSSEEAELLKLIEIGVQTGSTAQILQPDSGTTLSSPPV
Method in brief: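 Off-chip mobility-shift assay measuring conversion of a fluorescently labelled peptide substrate, in 100 mM HEPES pH 7.5, 1 mM DTT, 1 mM MgCl2 and 0.015% Brij-35. Reactions ran 90 min at 25 C and were stopped with EDTA. IC50s were derived from percent-conversion dose-response curves.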

Zap70 = biological target: T4, Zap70 (Homo sapiens, UniProt P43403); assay: ZAP-70 enzymatic assay (Caliper LifeSciences technology)
T4 construct: purchased BPS Bioscience, CA, USA
T4 sequence (P43403 1-619): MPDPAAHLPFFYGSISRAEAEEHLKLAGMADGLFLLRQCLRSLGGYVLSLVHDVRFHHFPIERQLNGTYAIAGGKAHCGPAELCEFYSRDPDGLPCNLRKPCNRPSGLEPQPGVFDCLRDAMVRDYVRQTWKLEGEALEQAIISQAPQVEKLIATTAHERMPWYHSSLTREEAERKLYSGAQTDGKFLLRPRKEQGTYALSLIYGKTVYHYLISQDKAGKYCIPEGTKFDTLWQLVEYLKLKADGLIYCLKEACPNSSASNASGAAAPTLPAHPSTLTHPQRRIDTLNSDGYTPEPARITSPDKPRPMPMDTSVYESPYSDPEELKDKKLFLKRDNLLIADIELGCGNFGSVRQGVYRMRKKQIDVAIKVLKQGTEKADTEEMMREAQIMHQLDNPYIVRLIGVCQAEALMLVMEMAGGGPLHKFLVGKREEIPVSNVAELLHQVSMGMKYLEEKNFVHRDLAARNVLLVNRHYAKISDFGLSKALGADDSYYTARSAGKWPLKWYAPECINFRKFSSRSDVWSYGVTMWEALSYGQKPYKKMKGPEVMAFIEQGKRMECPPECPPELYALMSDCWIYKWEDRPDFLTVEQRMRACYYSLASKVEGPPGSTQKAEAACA
Method: as §1, §2, §3, §4

SRC = biological target: T5, SRC (Homo sapiens, UniProt P12931); assay: Src enzymatic assay (Caliper LifeSciences technology)
T5 construct: purchased Carna Bioscience, Kobe, Japan
T5 sequence (P12931 whole entry): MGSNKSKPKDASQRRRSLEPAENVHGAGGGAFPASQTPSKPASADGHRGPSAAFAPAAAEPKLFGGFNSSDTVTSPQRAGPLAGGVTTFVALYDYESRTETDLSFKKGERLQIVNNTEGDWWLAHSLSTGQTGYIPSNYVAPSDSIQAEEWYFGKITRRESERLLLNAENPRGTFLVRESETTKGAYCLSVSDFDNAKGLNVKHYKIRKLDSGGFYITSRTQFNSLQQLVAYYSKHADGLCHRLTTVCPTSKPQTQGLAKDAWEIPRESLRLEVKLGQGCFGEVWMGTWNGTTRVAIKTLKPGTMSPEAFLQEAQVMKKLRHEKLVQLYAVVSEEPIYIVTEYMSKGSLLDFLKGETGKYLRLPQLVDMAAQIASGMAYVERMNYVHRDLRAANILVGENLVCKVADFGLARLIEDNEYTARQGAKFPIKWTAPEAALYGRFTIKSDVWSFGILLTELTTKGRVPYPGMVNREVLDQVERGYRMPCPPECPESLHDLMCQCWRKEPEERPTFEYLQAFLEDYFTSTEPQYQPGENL
Method: as §1, §2, §3, §4

T1 sequence (Q06187 whole entry): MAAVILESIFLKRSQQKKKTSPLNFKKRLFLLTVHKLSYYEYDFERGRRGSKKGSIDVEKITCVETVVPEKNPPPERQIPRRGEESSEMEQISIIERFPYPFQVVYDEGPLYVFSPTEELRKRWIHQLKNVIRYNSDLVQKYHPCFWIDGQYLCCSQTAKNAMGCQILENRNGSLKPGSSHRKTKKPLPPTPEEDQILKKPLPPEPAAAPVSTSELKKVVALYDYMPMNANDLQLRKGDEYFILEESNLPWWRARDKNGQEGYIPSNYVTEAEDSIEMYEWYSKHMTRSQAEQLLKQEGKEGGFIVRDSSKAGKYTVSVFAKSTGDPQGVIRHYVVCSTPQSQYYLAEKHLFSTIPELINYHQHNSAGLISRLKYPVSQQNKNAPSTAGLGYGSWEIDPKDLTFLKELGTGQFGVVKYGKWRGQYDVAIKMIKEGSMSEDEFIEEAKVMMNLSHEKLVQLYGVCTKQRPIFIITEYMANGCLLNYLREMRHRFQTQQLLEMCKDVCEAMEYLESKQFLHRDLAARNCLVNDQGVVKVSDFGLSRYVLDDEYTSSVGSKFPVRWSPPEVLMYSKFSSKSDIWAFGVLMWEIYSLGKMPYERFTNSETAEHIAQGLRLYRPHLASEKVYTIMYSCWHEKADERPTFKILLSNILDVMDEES

Compound | pIC50 (BTK) | pIC50 (Syk) | pIC50 (KDR) | pIC50 (Zap70) | pIC50 (SRC)
Nc1cccc(-c2cc3nccc(Oc4ccc(Oc5ccccc5)cc4)c3o2)c1 [Compound B79, 3-[7-(4-Phenoxyphenoxy)furo[3,2-b]pyridin-2-yl]aniline] | 5.52 to 6.52 | 4.30 to 5.52 |  |  | 
OCc1ccc(-c2cc3nccc(-c4ccc(CO)cc4)c3o2)cc1 [Compound B44, {4-[2-(4-Hydroxymethyl-phenyl)-furo[3,2-b]pyridin-7-yl]-phenyl}-methanol] | 4.30 to 5.52 | 5.52 to 6.52 | > 6.52 |  | 
COc1cc(-c2cc3nccc(-c4ccnn4C)c3o2)cc(OC)c1OC [Compound C64] |  | 5.52 to 6.52 |  | 4.30 to 5.52 | 
COc1cc(-c2cc3nccc(-c4ccc5[nH]nnc5c4)c3o2)cc(OC)c1OC [Compound C70] |  | > 6.52 | 5.52 to 6.52 | 5.52 to 6.52 | 
COc1cc(-c2cc3nccc(-c4ccc5c(c4)OCO5)c3o2)cc(OC)c1OC [Compound B76, 7-(Benzo[d][1,3]dioxol-5-yl)-2-(3,4,5-trimethoxyphenyl)furo[3,2-b]pyridine] |  | > 6.52 |  | 5.52 to 6.52 | 
COCC(O)Cn1cc(-c2ccnc3cc(-c4cc(OC)c(OC)c(OC)c4)oc23)cn1 (centres unmarked) [Compound C66] |  | 5.52 to 6.52 | 5.52 to 6.52 | 4.30 to 5.52 | 
Cn1cc(-c2ccnc3cc(-c4cccc(N)c4)oc23)cn1 [Compound C29] |  | > 6.52 | 5.52 to 6.52 | 4.30 to 5.52 | 4.30 to 5.52
COc1ccc(-c2cc3nccc(-c4ccccc4)c3o2)cc1NC(=O)[C@@H]1CCCN1 [Compound C30] |  | 5.52 to 6.52 | 5.52 to 6.52 | 4.30 to 5.52 | 
COc1cc(-c2cc3nccc(-c4ccc(CO)nc4)c3o2)cc(OC)c1OC [Compound C27] |  | > 6.52 | 4.30 to 5.52 | 4.30 to 5.52 | 
COc1cc(-c2cc3nccc(-c4cccc(C(=O)NC5CCCCC5N)c4)c3o2)cc(OC)c1OC (centres unmarked) [Compound A45, N-(2-Amino-cyclohexyl)-3-[2-(3,4,5-trimethoxy-phenyl)-furo[3,2-b]pyridin-7-yl]-benzamide] |  | > 6.52 | 4.30 to 5.52 | 4.30 to 5.52 | 5.52 to 6.52
COc1cc(-c2cc3nccc(-c4cccc(N)c4)c3o2)cc(OC)c1OC [Compound A55, 3-[2-(3,4,5-Trimethoxy-phenyl)-furo[3,2-b]pyridin-7-yl]-phenylamine] |  | > 6.52 | 4.30 to 5.52 | 5.52 to 6.52 | 
CCC(=O)Nc1cccc(-c2cc3nccc(Oc4ccccc4)c3o2)c1 [Compound D8, N-[3-(7-Phenoxy-furo[3,2-b]pyridin-2-yl)-phenyl]-propionamide] | 4.30 to 5.52 |  |  |  | 
COc1cc(-c2cc3nccc(-c4cccc5[nH]ncc45)c3o2)cc(OC)c1OC [Compound A17, 7-(1H-Indazol-4-yl)-2-(3,4,5-trimethoxy-phenyl)-furo[3,2-b]pyridine] |  | > 6.52 | 5.52 to 6.52 | 4.30 to 5.52 | 
C=CC(=O)Nc1cccc(-c2cc3nccc(Oc4ccc(Cl)cc4)c3o2)c1 [Compound D11, N-{3-[7-(4-Chloro-phenoxy)-furo[3,2-b]pyridin-2-yl]-phenyl}-acrylamide] | 5.52 to 6.52 |  |  |  | 
COc1cc(-c2cc3nccc(-c4cccc(C(=O)NCc5n[nH]c(=O)[nH]5)c4)c3o2)cc(OC)c1OC [Compound C12] |  | > 6.52 | 5.52 to 6.52 | 4.30 to 5.52 | 
COc1cc(-c2cc3nccc(-c4ccnc(NCC5CCCNC5)c4)c3o2)cc(OC)c1OC (centres unmarked) [Compound C185] |  | > 6.52 |  | 4.30 to 5.52 | > 6.52
COc1cc(-c2cc3nccc(-c4ccc(N)cc4)c3o2)cc(OC)c1OC [Compound A56, 4-[2-(3,4,5-Trimethoxy-phenyl)-furo[3,2-b]pyridin-7-yl]-phenylamine] |  | > 6.52 | 5.52 to 6.52 | 5.52 to 6.52 | 

Compound | pIC50 (BTK) | pIC50 (Syk) | pIC50 (KDR) | pIC50 (Zap70) | pIC50 (SRC)
C=CC(=O)NCc1cccc(-c2cc3nccc(Oc4ccc(Oc5ccccc5)cc4)c3o2)c1 [Compound D4, N-{3-[7-(4-Phenoxy-phenoxy)-furo[3,2-b]pyridin-2-yl]-benzyl}-acrylamide] | > 6.52 |  |  |  | 
O=C(CCl)Nc1ccc(Oc2ccnc3cc(-c4ccccc4)oc23)cc1 [Compound D23, 2-Chloro-N-[4-(2-phenyl-furo[3,2-b]pyridin-7-yloxy)-phenyl]-acetamide] | > 6.52 |  |  |  | 
CCC(=O)Nc1cccc(Oc2ccnc3cc(-c4ccccc4)oc23)c1 [Compound D21, N-[3-(2-Phenyl-furo[3,2-b]pyridin-7-yloxy)-phenyl]-propionamide] | 4.30 to 5.52 |  |  |  | 
CCC(=O)Nc1ccc(Oc2ccnc3cc(-c4ccccc4)oc23)cc1 [Compound D24, N-[4-(2-Phenyl-furo[3,2-b]pyridin-7-yloxy)-phenyl]-propionamide] | 4.30 to 5.52 |  |  |  | 
C=CC(=O)NCc1ccc(-c2ccnc3cc(-c4ccccc4)oc23)cc1 [Compound D25, N-[4-(2-Phenyl-furo[3,2-b]pyridin-7-yl)-benzyl]-acrylamide] | 5.52 to 6.52 |  |  |  | 
CCC(=O)Nc1cccc(-c2cc3nccc(-c4ccccc4)c3o2)c1 [Compound D14, N-[3-(7-Phenyl-furo[3,2-b]pyridin-2-yl)-phenyl]-propionamide] | 4.30 to 5.52 |  |  |  | 
Cn1cc(-c2ccnc3cc(-c4ccc5nc[nH]c5c4)oc23)cn1 [Compound C123] | 4.30 to 5.52 | > 6.52 | 5.52 to 6.52 |  | 
COc1cc(NC(=O)[C@@H]2C[C@@H](O)CN2)cc(-c2cc3nccc(-c4ccccc4)c3o2)c1 [Compound C46] |  | > 6.52 | 4.30 to 5.52 | 4.30 to 5.52 | 
C=CC(=O)NCc1cccc(-c2cc3nccc(-c4ccccc4)c3o2)c1 [Compound D15, N-[3-(7-Phenyl-furo[3,2-b]pyridin-2-yl)-benzyl]-acrylamide] | 5.52 to 6.52 |  |  |  | 
CCC(=O)Nc1cccc(Oc2ccnc3cc(C)oc23)c1 [Compound D28, N-[3-(2-Methyl-furo[3,2-b]pyridin-7-yloxy)-phenyl]-propionamide] | 4.30 to 5.52 |  |  |  | 
C=CC(=O)Nc1ccc(Oc2ccnc3cc(-c4ccccc4)oc23)cc1 [Compound D22, N-[4-(2-Phenyl-furo[3,2-b]pyridin-7-yloxy)-phenyl]-acrylamide] | 5.52 to 6.52 |  |  |  | 
O=C(CCl)NCc1cccc(-c2cc3nccc(-c4ccccc4)c3o2)c1 [Compound D16, 2-Chloro-N-[3-(7-phenyl-furo[3,2-b]pyridin-2-yl)-benzyl]-acetamide] | 5.52 to 6.52 |  |  |  | 
C=CC(=O)Nc1cccc(-c2cc3nccc(Oc4ccc5ncccc5c4)c3o2)c1 [Compound D10, N-{3-[7-(Quinolin-6-yloxy)-furo[3,2-b]pyridin-2-yl]-phenyl}-acrylamide] | 4.30 to 5.52 |  |  |  | 
CNC(=O)c1ccccc1Nc1ccnc2cc(-c3cc(OC)c(OC)c(OC)c3)oc12 [Compound B8, N-Methyl-2-[2-(3,4,5-trimethoxy-phenyl)-furo[3,2-b]pyridin-7-ylamino]-benzamide] | 5.52 to 6.52 | 5.52 to 6.52 |  |  | 5.52 to 6.52
COc1cc(-c2cc3nccc(-c4cnn(Cc5ccccc5)c4)c3o2)cc(OC)c1OC [Compound C58] |  | > 6.52 |  | > 6.52 | 
Cc1c(Nc2ccnc3cc(-c4ccc(CO)cc4)oc23)ccc2[nH]ccc12 [Compound B61, {4-[7-(4-Methyl-1H-indol-5-ylamino)-furo[3,2-b]pyridin-2-yl]-phenyl}-methanol] |  | 5.52 to 6.52 | > 6.52 | > 6.52 | 

Source: patent publication US9006440B2, “Furopyridine derivatives” (Merck Patent GmbH, priority 2010, dated 2015)
